According to patent US5147878A, “Aminoalkoxyphenyl derivatives, process of preparation and compositions containing the same” (Sanofi, priority 1986, dated 1992):
Where a name gives a salt, the structure may show the parent alone.

System: isolated rat aorta
Assay: Calcium inhibitory properties: contractile response to potassium-induced depolarization on isolated rat aorta
Parameters: species or system isolated organ, male Wistar rats
Details: for activity at 1 µM / activity at 0.1 µM / activity at 0.01 µM / activity at 0.001 µM: Rattus norvegicus, 1 h, read-out: % of the maximum contractional effect; for activity at 0.001 µM: 10^-9 M; for % of the maximum contractional effect: 60 min
Excerpt: It is well established that the depolarization of a smooth muscle membrane by potassium renders the latter permeable to extracellular calcium and induces muscle contraction. Consequently, the measurement of the inhibition of the contractile response to depolarization by potassium, or the measurement of a relaxation of the tonic contraction on potassium depolarization, can represent an evaluation of the power of a compound as an inhibitor of the membrane permeability to Ca^++ ions. The technique used was as follows: The aorta was removed from male Wistar rats weighing approximately 300 g, and cut into strips approximately 40 mm long and 3 mm wide. These fragments were placed in a 25-ml isolated organ trough containing a modified Krebs-bicarbonate solution (112 mM NaCl; 5 mM KCl; 25 mM NaHCO3; 1 mM KH2 PO4; 1.2 mM MgSO4; 2.5 mM CaCl2; 11.5 mM glucose, distilled water to 1000 ml) through which a stream of 5-7% carbon dioxide in oxygen was passed, and maintained at 37° C. The preparation was connected to a force microsensor and the contractile response recorded after amplification on a recorder. A tension of 2 g was applied to the preparation. This tension was maintained for 60 minutes in the modified Krebs-bicarbonate solution, and contractions were then induced by replacing the Krebs-bicarbonate solution by a potassium-Krebs solution (17 mM NaCl; 100 mM KCl; 25 mM NaHCO3; 1 mM KH2 PO4; 1.2 mM MgSO4; 2.5 mM CaCl2; 11.5 mM glucose; distilled water to 1000 ml). When the contractile response of the preparation had become reproducible, a given amount of a compound of the invention was introduced into the bath. Sixty minutes later, a new spasm was induced by potassium depolarization. The results obtained on the aorta used in the experiment were then expressed as a percentage of the maximum contractional effect before incubation with the test substance. By way of examples, the results which follow were obtained, the compounds of formula (1) being in the form of the base, hydrochloride or oxalate.

[1] = head printed "10^-" (exponent missing; first of three columns before 10^-6 M)

Compound | activity at 1 µM (10^-6 M) [%] | activity at 0.1 µM (10^-7 M) [%] | activity at 0.01 µM (10^-8 M) [%] | % of the maximum contractional effect [1] [%] | also measured
COc1ccc(CN(C)CCCCOc2ccc(S(=O)(=O)c3c(C(C)C)oc4ccccc34)cc2)cc1OC [Ex. 92, 2-Isopropyl-3-[4-{4-[N-methyl-N-(3,4-dimethoxy-benzyl)amino]butyloxy}benzenesulphonyl]benzofuran hemioxalate] | 3.8 | 31.5 | 61 | – | activity at 0.001 µM: 80.8%
CCCCCN(CCCCC)CCCOc1ccc(S(=O)(=O)c2c(C(C)C)cn3ccccc23)cc1 [Ex. 37, 2-Isopropyl-1-{4-[3-(di-n-pentylamino)propyloxy]-benzenesulphonyl}indolizine hydrochloride] | – | 48.7 | 77.8 | – | –
CCCCN(CCCC)CCCCCOc1ccc(S(=O)(=O)c2c(CC)cn3ccccc23)cc1 [Ex. 40, 2-Ethyl-1-{4-[5-(di-n-butylamino)pentyloxy]benzenesulphonyl}indolizine] | – | 49.7 | 87.9 | – | –
CC(C)(C)NCCCOc1ccc(S(=O)(=O)c2ccccn2)cc1 [Ex. 62, 2-{4-[3-(tertiobutylamino)propyloxy]benzenesulphonyl}pyridine oxalate] | 87.1 | – | – | 70.6 | –
CCCCN(CCCC)CCCOc1ccc(S(=O)(=O)c2ccncc2)cc1.O=C(O)C(=O)O.O=C(O)C(=O)O [Ex. 60, 4-{4-[3-(di-n-butylamino)propyloxy]benzenesulphonyl}pyridine dioxalate] | 75.5 | 89.7 | – | 20.2 | –
CC(C)c1cc2ccccn2c1S(=O)(=O)c1ccc(OCCCNC(C)(C)C)cc1 [Ex. 122, 2-isopropyl-3-{4-[3-tert-butylamino)propyloxy]benzenesulphonyl}indolizine hydrochloride] | 5.4 | 28.1 | 76.1 | – | activity at 0.001 µM: 92.5%
CCCCN(CCCC)CCCOc1ccc(S(=O)(=O)c2c(C(C)C)n(C)c3ccccc23)cc1 [Ex. 110, 1-Methyl-2-isopropyl-3-{4-[3-(di-n-butylamino)propyloxy]benzenesulphonyl}indole acid oxalate] | 0 | 15.1 | 71 | – | activity at 0.001 µM: 84.6%
COc1ccc(CN(C)CCCOc2ccc(S(=O)(=O)c3c(C(C)C)oc4ccccc34)cc2)cc1OC [Ex. 88, 2-isopropyl-3-[4-{3-[N-methyl-N-(3,4-dimethoxy-benzyl)amino)propyloxy}benzenesulphonyl]benzofuran acid oxalate] | 8.7 | 11.2 | 61.9 | – | activity at 0.001 µM: 87%
CCCCN(CCCC)CCCOc1ccc(Sc2ccncc2)cc1.O=C(O)C(=O)O.O=C(O)C(=O)O [Ex. 56, 4-{4-[3-(di-n-butylamino)propyloxy]phenylthio}pyridine dioxalate] | 58 | 86.2 | – | 2.6 | –
COc1cc(CCN(C)CCCOc2ccc(S(=O)(=O)c3c(C(C)C)cn4ccccc34)cc2)cc(OC)c1OC [Ex. 134, 2-isopropyl-1-[4-{3-[N-methyl-N-(3,4,5-trimethoxy-β-phenethyl)amino]propyloxy}benzenesulphonyl]indolizine acid oxalate] | – | 18.9 | 21.4 | – | activity at 0.001 µM: 65.7%
CCc1sc2c(c1S(=O)(=O)c1ccc(OCCCN(C)CCc3ccc(OC)c(OC)c3)cc1)CN(Cc1ccccc1Cl)CC2 [Ex. 120, 5-(2-chloro-benzyl)-2-ethyl-3-[4-{3-[N-methyl-N-(3,4-dimethoxy-β-phenethyl)amino]propyloxy}benzenesulphonyl]-4,5,6,7-tetrahydrothieno[3,2-c]pyridine oxalate] | 59.8 | 68.7 | 91.4 | – | –
CCCCN(CCCC)CCCOc1ccc(S(=O)(=O)c2ccccn2)cc1 [Ex. 58, 2-{4-[3-(di-n-butylamino)propyloxybenzenesulphonyl}pyridine oxalate] | 84.7 | 88.9 | – | 37 | –
COc1ccc(CCN(C)CCCOc2ccc(S(=O)(=O)c3c(C(C)C)oc4ccccc34)cc2)cc1OC.O=C(O)C(=O)O [Ex. 90, 2-Isopropyl-3-[4-{3-[N-methyl-N-(3,4-dimethoxy-β-phenethyl)amino]propyloxy}benzenesulphonyl]benzofuran acid oxalate] | – | – | – | – | % of the maximum contractional effect (10^-6 M, 1 µM): 0%; % of the maximum contractional effect (10^-7 M, 0.1 µM): 21.3%; % of the maximum contractional effect (10^-8 M, 0.01 µM): 56.9%
CC(C)c1occc1S(=O)(=O)c1ccc(OCCCNC(C)(C)C)cc1 [Ex. 79, 2-isopropyl-3-{4-[3-(tert-butylamino)propyloxy]benzenesulphonyl}furan oxalate] | 10.3 | 77.9 | 94.3 | – | –
COc1ccc(CCN(C)CCCOc2ccc(S(=O)(=O)c3nccn3Cc3ccccc3)cc2)cc1OC [Ex. 97, 1-benzyl-2-[4-{3-[N-methyl-N-(3,4-dimethoxy-β-phenethyl)amino]propyloxy}benzenesulphonyl]imidazole acid oxalate] | 66.7 | 87.5 | – | 23.5 | –
COc1ccc(CCN(C)CCCOc2ccc(S(=O)(=O)c3cc4ccccc4nn3)cc2)cc1OC [Ex. 81, 3-[4-{3-[N-methyl-N-(3,4-dimethoxy-β-phenethyl)amino]propyloxy}benzenesulphonyl]cinnoline oxalate] | 73.1 | 86.6 | – | 19.2 | –
COc1ccc(CCN(C)CCCCOc2ccc(S(=O)(=O)c3c(C(C)C)oc4ccccc34)cc2)cc1OC [Ex. 93, 2-Isopropyl-3-[4-{4-[N-methyl-N-(3,4-dimethoxy-β-phenethyl)amino]butyloxy}benzenesulphonyl]benzofuran acid oxalate] | – | 33.6 | 53.1 | – | –
COc1ccc(CCN(C)CCCOc2ccc(S(=O)(=O)c3ccncc3)cc2)cc1OC [Ex. 61, 4-[4-{3-[N-methyl-N-(3,4-dimethoxy-βphenethyl)amino]propyloxy}benzenesulphonyl]pyridine oxalate] | 70.7 | 88 | – | 14 | –
CCCCN(CCCC)CCCOc1ccc([S+]([O-])c2c(C(C)C)cn3ccccc23)cc1 (racemic) [Ex. 54, 4-[3-(di-n-butylamino)propyl]oxyphenyl(2-isopropyl-1-indolizinyl)sulphoxide oxalate] | – | 74.3 | 82.4 | – | –
Cc1cc(S(=O)(=O)c2c(-c3ccccc3)cn3ccccc23)ccc1OCCCNC(C)(C)C [Ex. 25, 2-Phenyl-1-{4-[3-(tert-butylamino)propyloxy]-3-methylbenzenesulphonyl}indolizine hydrochloride] | 67.7 | – | – | – | –
CCCCN(CCCC)CCCOc1ccc(S(=O)(=O)c2c(C(C)(C)C)cn3ccccc23)cc1 [Ex. 16, 2-tert-Butyl-1-{4-[3-(di-n-butylamino)propyloxy]-benzenesulphonyl}indolizine] | – | 35.8 | 78.7 | – | –
COc1ccc(CCN(C)CCCOc2ccc(S(=O)(=O)c3c(C(C)C)[nH]c4ccccc34)cc2)cc1OC [Ex. 105, 2-isopropyl-3-[4-{3-[N-methyl-N-(3,4-dimethoxy-β-phenethyl)amino]propyloxy}benzenesulphonyl]indole hemioxalate] | – | 11.9 | 62.9 | – | activity at 0.001 µM: 83.6%
CCN(CC)CCCOc1ccc(S(=O)(=O)c2c(C)cn3ccccc23)cc1 [Ex. 4, 2-Methyl-1-{4-[3-(diethylamino)propyloxy]benzenesulphonyl}indolizine oxalate] | 77.2 | – | – | – | –
COc1ccc(CCN(C)CCCOc2ccc(Sc3ccncc3)cc2)cc1OC [Ex. 57, 4-[4-{3-[N-methyl-N-(3,4-dimethoxy-β-phenethyl)amino]propyloxy}phenylthio]pyridine oxalate] | 59 | 85 | – | 3.1 | –
CCCCN(CCCC)CCCOc1ccc(S(=O)(=O)c2c(C(C)C)[nH]c3ccccc23)cc1 [Ex. 106, 2-Isopropyl-3-{4-[3-(di-n-butylamino)propyloxy]benzenesulphonyl}indole acid] | 4.9 | 37.4 | 66 | – | –
